Assay results published in patent publication US10421784B2, “Cell penetrating peptides for intracellular delivery of molecules” (AADIGEN, LLC, priority 2012, dated 2019).
Where two headings read alike, the source gives them in different places. Where a SMILES comes first, the peptide text is derived from it.

Key:
[1] = system: MCF7; experiment: Inhibition of cancer cell proliferation by delivered drugs; format: cell-based; details: Homo sapiens
[2] = system: SKB3; experiment: as above; format: cell-based; details: drug complexed with VEPEP-9f at molar ratio 1/20, read-out: VEPEP-9f IC50
[3] = system: SKB3-HEK2 xenografted mice; experiment: Survival after intravenous NANOPEP-9/doxorubicin; format: in vivo; details: free Doxo (20 mg/Kg), intravenous every 4 days
Protocol: NANOPEP-9 peptides (VEPEP-9a, b, d, f variants) have been used for the delivery of doxorubicin in vivo. The potential of NANOPEP-9 to deliver doxorubicin in vivo was evaluated on SKB3-HEK2 xenografted mice. Doxorubicin was complexed with VEPEP-9 peptide at a molar ratio of 1/20 with NANOPEP-9a, NANOPEP-9f and NANOPEP-9a-PEG. The treatment was started 10 days after tumor inoculation and with 2 mg/kg and 10 mg/Kg doses of drug and injected every 4 days by systemic Intravenous administration and mice were monitored for survival (FIG. 15).

[4] = system: cultured cells; experiment: Cell cycle progression / cyclin B1 levels in cultured cells; format: cell-based; details: VEPEP-9 mediated delivery
[5] = system: Hela, MCF7, HEK-2 and U2OS cells; experiment: Cell proliferation after VEPEP-9 mediated delivery; format: cell-based
Protocol: (§1) Adherent HS68 fibroblasts, HeLa, PC3, MCF-7, SCK3-Her2, PBMC cell lines (from American Type Culture Collection (ATCC)) were cultured in Dulbecco's Modified Eagle's Medium supplemented with 2 mM glutamine, 1% antibiotics (streptomycin 10,000 μg/ml, penicillin, 10,000 IU/ml) and 10% (w/v) foetal calf serum (FCS), at 37° C. in a humidified atmosphere containing 5% CO2. Stock solutions of VEPEP-9/peptide particles were prepared by complexing 1 μM peptide with VEPEP-9 peptides at a molar ratio of 1/20 for 30 min at 37° C. Lower concentrations of VEPEP-9-carrier/peptide (from 500 nM to 1 μM) were obtained by serial dilution of the stock complexes in PBS, in order to preserve the same VEPEP-9-carrier/peptide ratio. Stock solutions of VEPEP-9/siRNA particles were prepared by complexing 100 nM siRNA with VEPEP-9 peptides at a molar ratio of 1/20 for 30 min at 37° C. Lower concentrations of VEPEP-9/siRNA (from 20 nM to 0.125 nM) were obtained by serial dilution of the stock complexes in PBS, in order to preserve the same VEPEP-9/siRNA ratio. […] For cdk2 derived peptides, cell proliferation was monitored after 24 and 48 hrs. For siRNA targeting Cyclin B1, Cyclin B1 mRNA level was determined 24 hrs following transduction, using Quantigen (Pommies Inc.). […]

[6] = system: non-transformed HS68 fibroblasts; experiment: Cell proliferation after VEPEP-9 mediated delivery; format: cell-based, Human
Protocol: as §1

[7] = system: MCF7; details: read-out: IC50, block of proliferation, siRNA delivered with VEPEP-9b and VEPEP-9e
Protocol: (§3) Adherent HS68 fibroblasts, HeLa, PC3, MCF-7, SCK3-Her2, PBMC cell lines (from American Type Culture Collection (ATCC)) were cultured in Dulbecco's Modified Eagle's Medium supplemented with 2 mM glutamine, 1% antibiotics (streptomycin 10,000 μg/ml, penicillin, 10,000 IU/ml) and 10% (w/v) foetal calf serum (FCS), at 37° C. in a humidified atmosphere containing 5% CO2. […] Stock solutions of VEPEP-9/siRNA particles were prepared by complexing 100 nM siRNA with VEPEP-9 peptides at a molar ratio of 1/20 for 30 min at 37° C. Lower concentrations of VEPEP-9/siRNA (from 20 nM to 0.125 nM) were obtained by serial dilution of the stock complexes in PBS, in order to preserve the same VEPEP-9/siRNA ratio. 150,000 cells seeded in a 35 mm dish the day prior transfection, were grown to 60% confluence and overlaid with 200 μl of preformed complexes, incubated for 3-5 min, then 400 μl of DMEM were added. After 30 min. incubation at 37° C., 1 ml of fresh DMEM containing 16% foetal calf serum (FCS) was added in order to reach a final FCS concentration of 10%, without removing the overlay of VEPEP-9/cargo complexes. Cells were returned to the incubator for 24 hrs. For cdk2 derived peptides, cell proliferation was monitored after 24 and 48 hrs. For siRNA targeting Cyclin B1, Cyclin B1 mRNA level was determined 24 hrs following transduction, using Quantigen (Pommies Inc.). […]

[8] = system: PC3 tumor; experiment: Tumour size, intravenous Cyc B1 siRNA in NANOPEP-9; format: in vivo, mice; details: intravenous every three days, day 50
Protocol: (§2) For siRNA treatment: Two to three weeks after tumour implant, when tumour size reached about 100 mm^3, animals were treated by intratumoral or intravenous injection, every 3 days, with a solution of 0.1 ml of either free Cyc-B1 siRNA (50 or 100 μg), control siRNA Cyc-B3 or Cyc-B1 siRNA (1, 5, 10 μg) complexed with NANOPEP-9 at a 1/20 molar ratio.
Athymic female nude mice (6-8 weeks of age) were subcutaneously inoculated into the flank with 1×10^6 PC3 (prostate cancer), A549 (lung cancer) or SCK-3-HEK2 (ovarian cancer) cells in 100 μl PBS. Two to three weeks after tumour implant, when tumour size reached about 100 mm^3, animals were treated by intratumoral or intravenous injection, every 3 days, with a solution of 0.1 ml of either free Cyc-B1 siRNA (50 or 100 μg), control siRNA Cyc-B3 or Cyc-B1 siRNA (5, 10 μg) complexed with NANOPEP-9b or NANOPEP-9e particles. The “core” shell of the particles was formed using VEVEP-9b or VEPEP-9e peptide at a molar ratio of 20/1 with a siRNA targeting cycline B1. siRNA stock solutions are in 50 mM Tris, 0.5 mM EDTA buffer or in RNase free water. VEPEP-9 peptides were solubilised in water and stock solution of peptide was sonicated for 10 min in a water bath before complex formation. […]

[9] = system: HT29 tumor; experiment: Tumour size, intravenous Cyc B1 siRNA in NANOPEP-9; format: in vivo, mice; details: intravenous every three days, day 50
Protocol: NANOPEP-9b and NANOPEP-9e particles were used for systemic intravenous administration. Five micrograms (0.25 mg/kg) and 10 μg (0.5 mg/kg) of Cyc B1 siRNA in NANOPEP-9b and NANOPEP-9e particles were injected intravenously every three days into mice bearing xenografted tumors.

[10] = system: Hela; details: read-out: IC50, block of proliferation, siRNA delivered with VEPEP-9b and VEPEP-9e
Protocol: as §3

[11] = system: MCF7; details: read-out: IC50, accumulation of cells with a 4 N content (G2 arrest), Cyclin B1 siRNA delivered with VEPEP-9
[12] = system: HEK-2; experiment: G2 arrest (accumulation of cells with 4 N content); format: cell-based; details: Cyclin B1 siRNA delivered with VEPEP-9
[13] = system: PC3, A549, or SCK-3-HEK2-xenografted mice; experiment: Tumour growth and cyclin B1 mRNA, siRNA controls; format: in vivo
Protocol: as §2
Athymic female nude mice (6-8 weeks of age) were subcutaneously inoculated into the flank with 1×10^6 PC3 (prostate cancer), A549 (lung cancer) or SCK-3-HEK2 (ovarian cancer) cells in 100 μl PBS. Two to three weeks after tumour implant, when tumour size reached about 100 mm^3, animals were treated by intratumoral or intravenous injection, every 3 days, with a solution of 0.1 ml of either free Cyc-B1 siRNA (50 or 100 μg), control siRNA Cyc-B3 or Cyc-B1 siRNA (5, 10 μg) complexed with NANOPEP-9b or NANOPEP-9e particles. The “core” shell of the particles was formed using VEVEP-9b or VEPEP-9e peptide at a molar ratio of 20/1 with a siRNA targeting cycline B1. siRNA stock solutions are in 50 mM Tris, 0.5 mM EDTA buffer or in RNase free water. VEPEP-9 peptides were solubilised in water and stock solution of peptide was sonicated for 10 min in a water bath before complex formation. Then VEPEP-9/siRNA complexes were formed by adding siRNA into the peptide solution and incubating at 37° C. for 20-30 minutes to allow the carrier peptide/siRNA complexes to form. NANOPEP-9 particles contain a VEPEP-9/siRNA “core shell” surrounded by additional VEPEP-9 at a 1/20 molar ratio.
The potential of NANOPEP-9b or NANOPEP-9e to deliver cyclin B1 siRNA in vivo was evaluated on PC3, A549, or SCK-3-HEK2-xenografted mice (FIGS. 13A-13B). The effect of local intratumoral administration of NANOPEP-9/siRNA particles (molar ratio 20/1) on the growth of established subcutaneous tumours was evaluated. At day 50, tumor sizes in the control cohort, injected with PBS increased by about 3 to 5 fold. […] At day 48, it was validated that the Cyc-B1 siRNA mediated inhibition of tumour growth was directly associated with a decrease in the level of cyclin B1 mRNA.

[14] = system: Hela; details: read-out: IC50, accumulation of cells with a 4 N content (G2 arrest), Cyclin B1 siRNA delivered with VEPEP-9

Compound | IC50 ([1]; drug complexed with VEPEP-9a at molar ratio 1/20, read-out: VEPEP-9a IC50) [nM] | IC50 ([1]; drug complexed with VEPEP-9f at molar ratio 1/20, read-out: VEPEP-9f IC50) [nM] | IC50 ([1]; drug complexed with VEPEP-9d at molar ratio 1/20, read-out: VEPEP-9d IC50) [nM] | IC50 [2] [nM] | survival time [3] [days] | concentration at which 4 N accumulation was optimally obtained [4] [nM] | concentration sufficient to block proliferation [5] [nM] | reduction of proliferation [6] [%] | IC50 [7] [nM] | inhibition (reduction in tumor size) ([8]; 5 μg siRNA in NANOPEP-9b and NANOPEP-9e particles) [%] | inhibition (reduction in tumor size) ([8]; 10 μg siRNA in NANOPEP-9b and NANOPEP-9e particles) [%] | inhibition (reduction in tumor size) ([9]; 5 μg siRNA) [%] | inhibition (reduction in tumor size) ([9]; 10 μg siRNA) [%] | IC50 [10] [nM] | IC50 [11] [nM] | IC50 [12] [nM] | effect on tumour growth ([13]; 100 μg naked siRNA (intratumoral or intravenous) or carrier alone) | level of cyclin B1 mRNA in tumour ([13]; day 48) | IC50 [14] [nM]
COc1cccc2c1C(=O)c1c(O)c3c(c(O)c1C2=O)C[C@@](O)(C(=O)CO)C[C@@H]3O[C@H]1C[C@H](N)[C@H](O)[C@H](C)O1 [Doxo, doxorubicin] | 100 | 700 | 170 | 600 | 16 |  |  |  |  |  |  |  |  |  |  |  |  |  | 
CSCC[C@H](NC(=O)[C@H](CCCNC(=N)N)NC(=O)[C@@H](NC(=O)[C@H](CCC(N)=O)NC(=O)[C@H](CCCCN)NC(=O)[C@@H](N)CCCCN)C(C)C)C(=O)N[C@@H](C)C(=O)N[C@@H](Cc1c[nH]cn1)C(=O)N[C@@H](CC(C)C)C(=O)N[C@H](C(=O)N[C@@H](CC(C)C)C(=O)N[C@H](C(=O)O)[C@@H](C)O)C(C)C [C4, KKQVRMAHLVLT] (H-KKQVRMAHLVLT-OH; N-terminus and C-terminus assumed) |  |  |  |  |  | 200 | 200 | 10 |  |  |  |  |  |  |  |  |  |  | 
siRNA: siRNA targeting Cyclin B1; sense 5′GGCGAAGAUCAACAUGGCATT3′, antisense 5′UGCCAUGUUGAUCUUCGCCTT3′ (chemistry not given here) |  |  |  |  |  | 20 | 20 | 10 | 1.6 ± 0.5 | 65 | 90 | 35 | 70 | 3.1 ± 0.2 | 1.9 ± 0.9 | 1.2 ± 0.6 | no significant effect | decrease | 2.4 ± 0.8
